Test results reported in ChEMBL document CHEMBL4476866, “Pyrrol-1-yl benzoic acid derivatives useful as myc inhibitors” (2015).
Calls of active or inactive are those of the source. No cut-off for these calls is given here.

Experiments:
NCI-H2171 = assay: Cytotoxic activity against human NCI-H2171 cells assessed as reduction in cell viability incubated for 3 days by ATPlite assay; assay type: functional, cell-based
MM1.S = assay: Cytotoxic activity against human MM1S cells assessed as reduction in cell viability incubated for 3 days by ATPlite assay; assay type: functional, cell-based
[1] = Induction of Ebox DNA (unknown origin) intercalation assessed as reduction in c-Myc/Max/Ebox DNA complex formation at 1.7 to 15 uM by gel shift based orthogonal biochemical assay
[2] = Induction of Ebox DNA (unknown origin) intercalation assessed as reduction in Max/Max/Ebox DNA complex formation at 1.7 to 15 uM by gel shift based orthogonal biochemical assay
[3] = Induction of Ebox DNA (unknown origin) intercalation assessed as reduction in MITF/MITF/Ebox DNA complex formation at 1.7 to 15 uM by gel shift based orthogonal biochemical assay
[4] = target: T1, Myc proto-oncogene protein (Homo sapiens, UniProt P01106); assay: Inhibition of human c-Myc assessed as reduction in c-Myc/Max/Ebox DNA complex formation using pre-formed complex of c-Myc and biotinylated DNA containing single Ebox-sequence followed by compound addition and further addition of his6-tagged c-Max and incubated for 2 hrs by AlphaScreen assay
[5] = target: T1, Myc proto-oncogene protein; assay: Inhibition of c-Myc in human NCI-H2171 cells assessed as reduction in c-Myc occupancy at Hnrnpa2b1 binding site at 100 uM incubated for 4 hrs by chromatin immunoprecipitation assay; assay type: cell-based
[6] = target: T1, Myc proto-oncogene protein; assay: Inhibition of c-Myc in human NCI-H2171 cells assessed as reduction in c-Myc occupancy at Mat2a binding site at 100 uM incubated for 4 hrs by chromatin immunoprecipitation assay; assay type: cell-based
[7] = target: T1, Myc proto-oncogene protein; assay: Inhibition of c-Myc in human NCI-H2171 cells assessed as reduction in c-Myc occupancy at Npm1 binding site at 100 uM incubated for 4 hrs by chromatin immunoprecipitation assay; assay type: cell-based
[8] = target: T1, Myc proto-oncogene protein; assay: Inhibition of c-Myc in human NCI-H2171 cells assessed as reduction in c-Myc occupancy at Rp123a binding site at 100 uM incubated for 4 hrs by chromatin immunoprecipitation assay; assay type: cell-based
[9] = Homo sapiens, NCI-H2171, 72 h, read-out: EC50
[10] = Homo sapiens, MM1.S, 72 h, read-out: EC50

T1 sequence (P01106 whole entry): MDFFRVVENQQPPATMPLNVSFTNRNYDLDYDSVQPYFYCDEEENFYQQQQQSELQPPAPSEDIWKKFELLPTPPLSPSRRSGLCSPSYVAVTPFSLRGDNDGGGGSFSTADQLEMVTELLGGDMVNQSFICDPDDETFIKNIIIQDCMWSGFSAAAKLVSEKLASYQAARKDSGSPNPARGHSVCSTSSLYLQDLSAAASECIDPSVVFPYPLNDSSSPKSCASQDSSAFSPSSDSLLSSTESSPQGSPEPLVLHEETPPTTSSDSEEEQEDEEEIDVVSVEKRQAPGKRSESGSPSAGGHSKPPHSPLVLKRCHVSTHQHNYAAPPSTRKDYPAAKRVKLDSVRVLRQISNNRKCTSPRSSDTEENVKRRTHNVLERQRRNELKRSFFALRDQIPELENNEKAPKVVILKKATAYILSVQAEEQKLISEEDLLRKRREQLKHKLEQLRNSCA

Row | SMILES | EC50 (NCI-H2171; nci-h2171) | EC50 (MM1.S; mm1.s) | also measured
1 | Cc1ccc(C)n1-c1cc(C(=O)N/N=C/c2ccc(N(C)C)cc2)ccc1C(=O)O | Not Active | – | –
2 | Cc1ccc(C)n1-c1cnccc1C(=O)O | Not Active | – | –
3 | CC(=O)OCOC(=O)c1ccc(C(=O)N/N=C/c2c[nH]cn2)cc1-n1c(C)ccc1C | – | Not Active | –
4 | Cc1ccc(C)n1-c1cc(C(=O)N/N=C/c2cc(C(=O)O)ccc2F)ccc1C(=O)O | Not Active | – | –
5 | CN(C)c1ccc(/N=N/c2ccccc2C(=O)O)cc1 | – | Not Active | –
6 | Cc1ccc(C)n1-c1cc(C(=O)N/N=C/c2ccc(O)cc2)ccc1C(=O)O | Not Active | Not Active | –
7 | Cc1ccc(C)n1-c1cc(C(=O)NNC(=O)c2cccc(C(=O)O)c2)ccc1C(=O)O | Not Active | Not Active | –
8 | COc1cccc2c1C(=O)c1c(O)c3c(c(O)c1C2=O)C[C@@](O)(C(=O)CO)C[C@@H]3O[C@H]1C[C@H](N)[C@H](O)[C@H](C)O1 | – | – | Activity [1]: Active; Activity [2]: Active; Activity [3]: Active
9 | Cc1ccc(C)n1-c1ncccc1C(=O)O | – | Not Active | –
10 | CC(=O)OCOC(=O)c1ccccc1-n1c(C)ccc1C | – | – | EC50 (NCI-H2171; [9]): 20.7 to 29.9 µM; EC50 (MM1.S; [10]): 52.3 to 71.4 µM
11 | Cc1cc(C(=O)O)ccc1-n1c(C)ccc1C | – | Not Active | –
12 | Cc1ccc(C)n1-c1cc(C(=O)N/N=C/c2ccccc2N2CCOCC2)ccc1C(=O)O | Not Active | Not Active | IC50 ([4]; read-out: IC50): 7.05 µM
13 | CC(=O)OCOC(=O)c1ccccc1-n1ccnc1C | – | – | IC50 [4]: Not Active
14 | Cc1ccc(C)n1-c1cc(C(=O)NN)ccc1C(=O)O | – | – | EC50 (NCI-H2171; nci-h2171, read-out: EC50): 0.00363 to 43.7 µM; EC50 (MM1.S; [10]): 625 to 1240 µM
15 | Cc1c2ccccc2c(C)n1-c1ccccc1C(=O)O | Not Active | Not Active | –
16 | CC(=O)OCOC(=O)c1ccc(-n2c(C)ccc2C)cc1O | – | – | EC50 (NCI-H2171; [9]): 2.8 to 66.1 µM; EC50 (MM1.S; [10]): 11 to 446 µM

Row | SMILES | EC50 (NCI-H2171; nci-h2171) | EC50 (MM1.S; mm1.s) | also measured
17 | Cc1ccc(C)n1-c1cc(C(=O)N/N=C/c2cccc3ncccc23)ccc1C(=O)O | – | Not Active | –
18 | Cc1ccc(C)n1-c1cccc(C(=O)c2ccccc2)c1C(=O)O | – | Not Active | –
19 | Cc1ccc(C)n1-c1cc(C(=O)N/N=C/c2c[nH]c3ccc(F)cc23)ccc1C(=O)O | Not Active | Not Active | –
20 | O=C(O)c1ccccc1-n1c2ccccc2c2ccccc21 | – | – | IC50 [4]: Not Active
21 | COc1ncc(/C=N/NC(=O)c2ccc(C(=O)O)c(-n3c(C)ccc3C)c2)c(OC)n1 | – | Not Active | –
22 | Cc1c(C)c(C)n(-c2ccccc2C(=O)O)c1C | – | – | IC50 ([4]; read-out: IC50): 83.4 µM
23 | O=C(O)c1ccccc1-n1cccc1 | – | – | inhibition [5]: inactive; inhibition [6]: inactive; inhibition [7]: inactive; inhibition [8]: inactive
24 | Cc1ccc(C)n1-c1cc(C(=O)N/N=C/c2cccc(B(O)O)c2)ccc1C(=O)O | Not Active | Not Active | –
25 | Cc1ccc(C)n1-c1cc(C(=O)N/N=C/c2cccnc2)ccc1C(=O)O | Not Active | – | –
26 | CC(=O)OCOC(=O)c1ccccc1N1CCN(C)CC1 | – | – | IC50 [4]: Not Active
27 | Cc1ccc(C)n1-c1cc(C(=O)N/N=C\c2ccc(O)c(F)c2)ccc1C(=O)O | Not Active | Not Active | –
28 | Cc1ccc(C)n1-c1cc(C(=O)O)ccc1C(=O)O | Not Active | – | IC50 ([4]; read-out: IC50): 0.788 µM
29 | Cc1ccc(C)n1-c1ccccc1C(N)=O | – | – | IC50 [4]: Not Active
30 | Cc1ccc(C)n1-c1cc(C(=O)N/N=C/c2c[nH]c3ccc(C#N)cc23)ccc1C(=O)O | – | – | EC50 (NCI-H2171; [9]): 3240 µM; EC50 (MM1.S; [10]): 5.75 µM
31 | Cc1ccc(C)n1-c1cc(C(=O)N/N=C/c2c[nH]c3cc(F)ccc23)ccc1C(=O)O | – | Not Active | –
